Values after ≈ are worked out from the molar mass of the structure shown. Blank lines part the entries; values can stand above or below the compound they belong to.
Tests used:
hOX2R = target: T1, hOX2R (Homo sapiens, UniProt O43614); assay: In vitro test of OX2R: calcium signal change in HEK293-OX2 cells detected with FLIPR; assay type: cell-based
T1 construct: expressed in transfected cells
T1 sequence (O43614 1-444): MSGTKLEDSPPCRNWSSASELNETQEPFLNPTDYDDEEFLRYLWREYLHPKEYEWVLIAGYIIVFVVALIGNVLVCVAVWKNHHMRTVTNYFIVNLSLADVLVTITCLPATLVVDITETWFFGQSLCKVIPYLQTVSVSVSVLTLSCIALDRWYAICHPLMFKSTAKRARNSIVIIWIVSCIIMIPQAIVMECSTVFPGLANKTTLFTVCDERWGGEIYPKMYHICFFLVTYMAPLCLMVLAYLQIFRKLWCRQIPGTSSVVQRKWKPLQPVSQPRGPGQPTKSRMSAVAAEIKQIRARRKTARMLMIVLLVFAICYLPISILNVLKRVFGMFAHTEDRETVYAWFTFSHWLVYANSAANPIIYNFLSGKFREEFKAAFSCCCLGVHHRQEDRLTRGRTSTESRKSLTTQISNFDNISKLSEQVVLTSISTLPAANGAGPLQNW

hOX1R = target: T2, hOX1R (Homo sapiens, UniProt O43613); assay: In vitro test of OX1R: calcium signal change in HEK293-OX1 cells detected with FLIPR; assay type: cell-based
T2 construct: expressed in transfected cells
T2 sequence (O43613 1-425): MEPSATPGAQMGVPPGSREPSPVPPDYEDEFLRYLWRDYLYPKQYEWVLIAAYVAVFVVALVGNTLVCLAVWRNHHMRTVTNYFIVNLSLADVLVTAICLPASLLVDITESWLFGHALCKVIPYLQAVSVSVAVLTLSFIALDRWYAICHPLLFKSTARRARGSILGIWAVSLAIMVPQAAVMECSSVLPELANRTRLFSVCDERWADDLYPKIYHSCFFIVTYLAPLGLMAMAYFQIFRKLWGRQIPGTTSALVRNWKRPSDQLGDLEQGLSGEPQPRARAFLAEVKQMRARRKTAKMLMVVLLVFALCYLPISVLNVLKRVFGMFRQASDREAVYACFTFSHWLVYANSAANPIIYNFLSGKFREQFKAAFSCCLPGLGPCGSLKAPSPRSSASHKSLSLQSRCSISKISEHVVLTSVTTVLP

[1] = Solubility of crystal form II in different aqueous media (37° C., 24 hours, HPLC); assay type: physicochemical; conditions: for Appearance: 10 mg in 1 mL
[2] = Solubility of crystal form I in different solvents (visual, room temperature); assay type: physicochemical
Protocol: Solubility Study of crystal form I of compound 5-3:1-1.5 mg of crystal form I of compound 5-3 was added to a flask at room temperature, a single organic solvent or a mixed solvent was added in small quantities and many times until the visual solution was clear or no solid particles were present, determined the solubility of crystal form I in different solvents, the results were shown in Table 2.

[3] = Simulated fasting intestinal fluid
[4] = Simulated postprandial intestinal fluid

IC50 (hOX2R): < 50 nM
IC50 (hOX1R): < 50 nM
SMILES: Cc1ccc(-c2ncccn2)c(C(=O)N2C3CCC2[C@@H](COc2ccc(F)cn2)CC3)c1 (stereo partly drawn) [Compound 5-3]

Crystal form of residual solid ([1]; 0.1N HCl): crystal form II
Final pH ([1]; 0.1N HCl): 0.80
Solubility (descriptive) ([1]; 0.1N HCl): Slightly soluble
Appearance ([1]; 0.1N HCl): turbid
Crystal form of residual solid ([1]; Simulate gastric fluid): crystal form II
Final pH ([1]; Simulate gastric fluid): 1.88
Solubility (descriptive) ([1]; Simulate gastric fluid): Slightly soluble
Appearance ([1]; Simulate gastric fluid): turbid
Crystal form of residual solid [1, 3]: crystal form II
Final pH [1, 3]: 6.65
Solubility (descriptive) [1, 3]: Slightly soluble
Appearance [1, 3]: turbid
Crystal form of residual solid [1, 4]: crystal form II
Final pH [1, 4]: 5.04
Solubility (descriptive) [1, 4]: Slightly soluble
Appearance [1, 4]: turbid
solubility at 24 h ([1]; pH 0.8, simulated gastric fluid, thermodynamic from solid, 0.1N HCl): 0.42 mg/mL (≈ 0.971 mM)
solubility at 24 h ([1]; pH 1.88, simulated gastric fluid, thermodynamic from solid, Simulate gastric fluid): 0.27 mg/mL (≈ 0.624 mM)
solubility at 24 h ([1]; pH 5.04, fessif, thermodynamic from solid, Simulated postprandial intestinal fluid): 0.29 mg/mL (≈ 0.671 mM)
solubility at 24 h ([1]; pH 6.65, fassif, thermodynamic from solid, Simulated fasting intestinal fluid): 0.18 mg/mL (≈ 0.416 mM)
solubility at 24 h ([1]; pH 7.95, thermodynamic from solid, water): 0.14 mg/mL (≈ 0.324 mM)
Crystal form of residual solid ([1]; water): crystal form II
Final pH ([1]; water): 7.95
Solubility (descriptive) ([1]; water): Slightly soluble
Appearance ([1]; water): turbid
SMILES: Cc1ccc(-c2ncccn2)c(C(=O)N2C3CCC2[C@@H](COc2ccc(F)cn2)CC3)c1 (stereo partly drawn) [crystal form II]

solubility ([2]; organic solvent or mixture, thermodynamic from solid, 1,4-dioxane): > 57 mg/mL
solubility ([2]; organic solvent or mixture, thermodynamic from solid, ACN): 20 to 50 mg/mL (≈ 46.2 to 116 mM)
solubility ([2]; organic solvent or mixture, thermodynamic from solid, Acetone): > 52 mg/mL
solubility ([2]; organic solvent or mixture, thermodynamic from solid, EtOAc): 19 to 48 mg/mL (≈ 43.9 to 111 mM)
solubility ([2]; organic solvent or mixture, thermodynamic from solid, EtOH): 22 to 55 mg/mL (≈ 50.9 to 127 mM)
solubility ([2]; organic solvent or mixture, thermodynamic from solid, IPA): 10 to 20 mg/mL (≈ 23.1 to 46.2 mM)
solubility ([2]; organic solvent or mixture, thermodynamic from solid, MEK): > 54 mg/mL
solubility ([2]; organic solvent or mixture, thermodynamic from solid, MIBK): 24 to 60 mg/mL (≈ 55.5 to 139 mM)
solubility ([2]; organic solvent or mixture, thermodynamic from solid, MTBE): < 1 mg/mL
solubility ([2]; organic solvent or mixture, thermodynamic from solid, MeOH): > 53 mg/mL
solubility ([2]; organic solvent or mixture, thermodynamic from solid, MeOH—H2O (3:1)): 18 to 46 mg/mL (≈ 41.6 to 106 mM)
solubility ([2]; organic solvent or mixture, thermodynamic from solid, THF): > 53 mg/mL
solubility ([2]; organic solvent or mixture, thermodynamic from solid, Toluene): > 54 mg/mL
solubility ([2]; organic solvent or mixture, thermodynamic from solid, n-butanol): 22 to 55 mg/mL (≈ 50.9 to 127 mM)
solubility ([2]; thermodynamic from solid, water): < 1 mg/mL
SMILES: Cc1ccc(-c2ncccn2)c(C(=O)N2C3CCC2[C@@H](COc2ccc(F)cn2)CC3)c1 (stereo partly drawn) [crystal form I]

Source: US10898486B2, “Crystal form of orexin receptor antagonist compound, and preparation method and application thereof” (Shanghai Haiyan Pharmaceutical Technology Co., Ltd., priority 2015, dated 2021)
